Test [1] can be described thus: Cytotoxicity against mouse EAC cells. The test is classed as functional, cell-based, Ehrlich.
Test [2] can be described thus: Cytotoxicity against mouse EAC cells assessed as nonviable cell at 100 ug/mL relative to doxorubicin. The test is classed as functional, Ehrlich.
Test [3] can be described thus: Cytotoxicity against mouse EAC cells assessed as nonviable cell at 50 ug/mL relative to doxorubicin. Type of test: functional, Ehrlich.
Test [4] in a line: Cytotoxicity against mouse EAC cells assessed as nonviable cell at 25 ug/mL relative to doxorubicin. The test is classed as functional, Ehrlich.
A short description of test [5]: Cytotoxicity against mouse EAC cells assessed as nonviable cell at 10 ug/mL relative to doxorubicin. Type of test: functional, Ehrlich.
Where [6] appears, read: Mus musculus, Ehrlich, read-out: IC50.

Take `COc1cc(N2C(N)=C(C#N)C(c3ccc(OC)c4ccccc34)C3=C2CC(C)(C)CC3=O)cc(OC)c1OC` (stereo not given): the IC50 result in test [1] (ehrlich) was “Not Active”. For the same molecule, the Activity in test [2] was determined as 40%; in test [3] it was 40%; in test [4], 30%; in test [5], 10%.

As for `COc1cc(N2C(N)=C(C#N)C(c3ccccc3Cl)C3=C2CC(C)(C)CC3=O)cc(OC)c1OC` (stereo not given), the IC50 result in test [1] (ehrlich) is on record as “Not Active”. For the same molecule, the Activity is 20% in test [2], 20% in test [3], 15% in test [4] and 10% in test [5].

With `COc1ccc(C2C(C#N)=C(N)N(c3cc(OC)c(OC)c(OC)c3)C3=C2C(=O)CC(C)(C)C3)cc1` (stereo not given), the IC50 result in test [1] (ehrlich) is on record as “Not Active”. Further, the Activity in test [2] came out at 15%; in test [3], 11%; in test [4] it was 1%; in test [5] it was 0%.

Turning to `COc1cc(N2C(N)=C(C#N)C(c3c(OC)ccc4ccccc34)C3=C2CC(C)(C)CC3=O)cc(OC)c1OC` (stereo not given), the IC50 result in test [1] (ehrlich) is “Not Active”. The Activity was found to be 30% in test [2], 10% in test [3], 5% in test [4] and 0% in test [5].

For `COc1cc(N2C(N)=C(C#N)C(/C=C/c3ccccc3)C3=C2CC(C)(C)CC3=O)cc(OC)c1OC` (stereo not given), the IC50 entry in test [1] (ehrlich) is given as “Not Active”. The Activity turned out to be 40% in test [2], 30% in test [3], 30% in test [4] and 10% in test [5].

In the case of `COc1cc(N2C(N)=C(C#N)C(c3ccccc3O)C3=C2CC(C)(C)CC3=O)cc(OC)c1OC` (stereo not given), the IC50 result in test [1] (ehrlich) is on record as “Not Active”. Besides, the Activity in test [2] was 10%; in test [3], 2%; in test [4], 0%; in test [5], 0%.

Take `COc1cc(N2C(N)=C(C#N)C(c3ccc([N+](=O)[O-])cc3)C3=C2CC(C)(C)CC3=O)cc(OC)c1OC` (stereo not given): the IC50 in test [1] (setting [6]) was found to be 25 µM. Further, the Activity was 80% in test [2], 70% in test [3], 50% in test [4] and 10% in test [5].

With `COc1cc(N2C(N)=C(C#N)C(c3ccc4c(c3)OCO4)C3=C2CC(C)(C)CC3=O)cc(OC)c1OC` (stereo not given), the concentration for half-maximal inhibition (IC50) entry in test [1] (ehrlich) is on record as “Not Active”. Also, the Activity in test [2] was 40%; in test [3] it was 40%; in test [4], 30%; in test [5], 10%.

As to `CCOc1cc(C2C(C#N)=C(N)N(c3cc(OC)c(OC)c(OC)c3)C3=C2C(=O)CC(C)(C)C3)ccc1O` (stereo not given), the 50% inhibitory concentration (IC50) entry in test [1] (ehrlich) is “Not Active”. The Activity in test [2] was determined as 45%; in test [3], 40%; in test [4], 10%; in test [5], 2%.

Turning to `COc1cc(N2C(N)=C(C#N)C(c3ccc(O)cc3)C3=C2CC(C)(C)CC3=O)cc(OC)c1OC` (stereo not given), the IC50 in test [1] (setting [6]) was found to be 75.8 µM. Further, the Activity in test [2] was determined as 100%; in test [3], 90%; in test [4], 20%; in test [5], 10%.

With `COc1cc(N2C(N)=C(C#N)C(c3cccc([N+](=O)[O-])c3)C3=C2CC(C)(C)CC3=O)cc(OC)c1OC` (stereo not given), the IC50 entry in test [1] (ehrlich) was “Not Active”. The Activity is given as 30% in test [2], 30% in test [3], 20% in test [4] and 5% in test [5].

With `COc1cc(N2C(N)=C(C#N)C(c3ccc(C)o3)C3=C2CC(C)(C)CC3=O)cc(OC)c1OC` (stereo not given), in test [1] (setting [6]), the IC50 was 216 µM. For the same molecule, the Activity was 50% in test [2], 41% in test [3], 31% in test [4] and 21% in test [5].

For the molecule `COc1cc(C2C(C#N)=C(N)N(c3cc(OC)c(OC)c(OC)c3)C3=C2C(=O)CC(C)(C)C3)ccc1O` (stereo not given), the IC50 entry in test [1] (ehrlich) is given as “Not Active”. Also, the Activity in test [2] stood at 40%; in test [3], 30%; in test [4] it was 20%; in test [5], 10%.

For `COc1cc(N2C(N)=C(C#N)C(c3cccs3)C3=C2CC(C)(C)CC3=O)cc(OC)c1OC` (stereo not given), the IC50 result in test [1] (ehrlich) is given as “Not Active”. Besides, the Activity was 20% in test [2], 15% in test [3], 10% in test [4] and 5% in test [5].

Take `COc1cc(N2C(N)=C(C#N)C(c3ccc(Cl)cc3Cl)C3=C2CC(C)(C)CC3=O)cc(OC)c1OC` (stereo not given): in test [1] (setting [6]), the IC50 was determined as 94.7 µM. Moreover, the Activity stood at 100% in test [2], 95% in test [3], 55% in test [4] and 20% in test [5].

Turning to `COc1cc(N2C(N)=C(C#N)C(c3ccc(C)cc3)C3=C2CC(C)(C)CC3=O)cc(OC)c1OC` (stereo not given), the IC50 in test [1] (setting [6]) turned out to be 52.9 µM. Besides, the Activity was found to be 90% in test [2], 60% in test [3], 50% in test [4] and 30% in test [5].

For the molecule `COc1ccccc1C1C(C#N)=C(N)N(c2cc(OC)c(OC)c(OC)c2)C2=C1C(=O)CC(C)(C)C2` (stereo not given), the IC50 in test [1] (setting [6]) stood at 26.6 µM. The Activity in test [2] worked out at 100%; in test [3], 70%; in test [4] it was 65%; in test [5] it was 30%.

Consider `COc1cc(N2C(N)=C(C#N)C(c3ccccc3)C3=C2CC(C)(C)CC3=O)cc(OC)c1OC` (stereo not given), for which the IC50 result in test [1] (ehrlich) was “Not Active”. Further, the Activity in test [2] turned out to be 10%; in test [3] it was 8%; in test [4] it was 6%; in test [5], 0%.

On to `COc1cc(N2C(N)=C(C#N)C(c3ccc(OC)c(OC)c3OC)C3=C2CC(C)(C)CC3=O)cc(OC)c1OC` (stereo not given), for which the IC50 entry in test [1] (ehrlich) is given as “Not Active”. Further, the Activity was determined as 40% in test [2], 30% in test [3], 30% in test [4] and 20% in test [5].

As to `COc1cc(N2C(N)=C(C#N)C(c3c(O)ccc4ccccc34)C3=C2CC(C)(C)CC3=O)cc(OC)c1OC` (stereo not given), the IC50 in test [1] (setting [6]) turned out to be 143 µM. The Activity is 90% in test [2], 15% in test [3], 10% in test [4] and 2% in test [5].

For `COc1cccc2c1C(=O)c1c(O)c3c(c(O)c1C2=O)C[C@@](O)(C(=O)CO)C[C@@H]3O[C@H]1C[C@H](N)[C@H](O)[C@H](C)O1` [DOXORUBICIN], in test [1] (setting [6]), the IC50 was 68.1 µM. For the same molecule, the Activity in test [2] was 100%; in test [3], 68%; in test [4], 30%; in test [5], 24%.

Values taken from ChEMBL document CHEMBL1156137, “Synthesis and biological evaluation of 2-amino-7,7-dimethyl 4-substituted-5-oxo-1-(3,4,5-trimethoxy)-1,4,5,6,7,8-hexahydro-quinoline-3-carbonitrile derivatives as potential cytotoxic agents” (Bioorg Med Chem Lett, 2009).
